“And” between values parts separate entries of the source, which are not always exact repeats. Identical values can stand only once. Inconclusive results and toxic doses are left out.

For this experiment, the system named is CD2F1 mice, L1210 leukemia sc, survival T/C. As to the kind of experiment: NCI In Vivo Anticancer Drug Screen. Data for tumor model L1210 Leukemia (subcutaneous) in CD2F1 (CDF1) mice. As to conditions: endpoint: median survival time, vehicle: saline, higher = longer survival. A digest of the protocol: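 Transplantable tumor-bearing mice were treated with compound; survival or tumor size measured and expressed as treated-group value (T) divided by vehicle-treated control value (C).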

For the compound `O=c1[nH]cc(F)c(=O)[nH]1`, the T/C (dose: 2.5 mg/kg/injection, schedule: Q01DX009 (ip)) was 109 % of control and 94 % of control; the T/C (dose: 5.0 mg/kg/injection, schedule: Q01DX009 (ip)) is 101 % of control and 106 % of control; the T/C (dose: 6.0 mg/kg/injection, schedule: Q01DX009 (ip)) was 111 % of control; the T/C (dose: 6.0 mg/kg/injection, schedule: Q01DX009 (sc)) was 110 % of control; the T/C (dose: 6.25 mg/kg/injection, schedule: Q01DX009 (ip)) is 93 % of control; the T/C (dose: 10.0 mg/kg/injection, schedule: Q01DX009 (ip)) is 108 % of control and 114 % of control and 117 % of control. The T/C reads like this: (dose: 10.0 mg/kg/injection, schedule: Q01DX009 (sc)) 102 % of control; (dose: 12.5 mg/kg/injection, schedule: Q01DX006 (ip)) 105 % of control; (dose: 12.5 mg/kg/injection, schedule: Q01DX009 (ip)) 112 % of control; (dose: 12.5 mg/kg/injection, schedule: Q02DX005 (ip)) 111 % of control; (dose: 16.0 mg/kg/injection, schedule: Q01DX009 (sc)) 150 % of control; (dose: 20.0 mg/kg/injection, schedule: Q01DX009 (sc)) 118 % of control. The T/C by setting is: (dose: 24.0 mg/kg/injection, schedule: Q01DX009 (ip)) 155 % of control; (dose: 24.0 mg/kg/injection, schedule: Q01DX009 (sc)) 152 % of control and 168 % of control; (dose: 25.0 mg/kg/injection, schedule: Q02DX005 (ip)) 112 % of control; (dose: 25.0 mg/kg/injection, schedule: Q04DX003 (ip)) 100 % of control; (dose: 26.7 mg/kg/injection, schedule: Q01DX009 (sc)) 152 % of control; (dose: 40.0 mg/kg/injection, schedule: Q01DX009 (ip)) 104 % of control and 114 % of control and 94 % of control. Besides, the T/C is 151 % of control and 160 % of control (dose: 40.0 mg/kg/injection, schedule: Q01DX009 (sc)); 102 % of control (dose: 48.0 mg/kg/injection, schedule: Q01DX009 (ip)); 117 % of control (dose: 48.0 mg/kg/injection, schedule: Q01DX009 (sc)); 111 % of control (dose: 50.0 mg/kg/injection, schedule: Q01DX001 (ip)); 150 % of control (dose: 50.0 mg/kg/injection, schedule: Q01DX009 (ip)); 100 % of control (dose: 50.0 mg/kg/injection, schedule: Q04DX003 (ip)). Moreover, the T/C runs as follows: (dose: 60.0 mg/kg/injection, schedule: Q01DX009 (sc)) 161 % of control; (dose: 65.0 mg/kg/injection, schedule: Q01DX Z (sc)) 112 % of control; (dose: 80.0 mg/kg/injection, schedule: Q01DX009 (ip)) 103 % of control; (dose: 96.0 mg/kg/injection, schedule: Q01DX009 (ip)) 91 % of control; (dose: 96.0 mg/kg/injection, schedule: Q01DX009 (sc)) 88 % of control; (dose: 100.0 mg/kg/injection, schedule: Q01DX001 (ip)) 122 % of control. The T/C runs as follows: (dose: 100.0 mg/kg/injection, schedule: Q02DX005 (ip)) 175 % of control; (dose: 100.0 mg/kg/injection, schedule: Q04DX003 (ip)) 155 % of control; (dose: 108.0 mg/kg/injection, schedule: Q01DX Z (sc)) 112 % of control; (dose: 180.0 mg/kg/injection, schedule: Q01DX Z (sc)) 108 % of control; (dose: 400.0 mg/kg/injection, schedule: Q01DX001 (ip)) 122 % of control.

As to `CNNCc1ccc(C(=O)NC(N)=O)cc1`, the T/C was 94 % of control (dose: 50.0 mg/kg/injection, schedule: Q01DX Z (sc)); 105 % of control (dose: 100.0 mg/kg/injection, schedule: Q01DX Z (sc)); 105 % of control (dose: 200.0 mg/kg/injection, schedule: Q01DX Z (sc)); 94 % of control (dose: 400.0 mg/kg/injection, schedule: Q01DX Z (sc)).

These data come from PubChem BioAssay AID258 (DTP/NCI, 2004).
